Laboratory results reported in US20140377278A1, “Compositions and Methods for Assessing and Treating Inflammatory Diseases and Disorders” (Yale University, priority 2012, published 2014).

System: ASC^−/− mice
Assay: DSS colitis in ASC-deficient mice after oral antimicrobial pretreatment
Type: in vivo
Details: oral antiviral, antifungal or antiparasitic treatment before DSS; weight loss compared (FIGS. 13C-13E)

Structure (SMILES) | severity of colitis in ASC-deficient mice
Nc1nc(O)c2ncn(COC(CO)CO)c2n1 [gancyclovir] | None of these treatments altered the severity of colitis
C[C@@H]1[C@H](O)[C@@H](C)/C=C/C=C/C=C/C=C/C=C/C=C/C=C/[C@H](O[C@@H]2O[C@H](C)[C@@H](O)[C@H](N)[C@@H]2O)C[C@@H]2O[C@](O)(C[C@@H](O)C[C@@H](O)[C@H](O)CC[C@@H](O)C[C@@H](O)CC(=O)O[C@H]1C)C[C@H](O)[C@H]2C(=O)O [amphotericin, amphotericin B] | None of these treatments altered the severity of colitis
